Among the test systems are DLD-1 colon; DMS 114 small cell lung; DMS 273 small cell lung; HOP-18 NSCLC; KM20L2 colon; LXFL 529 NSCLC; SNB-78 CNS; RXF-631 renal; XF 498 CNS.
Holding throughout (test): growth of human tumour cells (NCI), 48 h

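Dose response: 5 concentrations. Exposure: 48 h. Format: 96-well plates. Endpoint: linear interpolation; highest concentration if not reached. The concentration for full growth arrest is given as TGI.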

Regarding `Cc1ccc(C)c2c1C1CCCCC3(OCCCO3)C21O` (centres undefined), the TGI in the test on DLD-1 colon, in the test with DMS 114 small cell lung, in the test on DMS 273 small cell lung, with HOP-18 NSCLC, in the test with KM20L2 colon and with LXFL 529 NSCLC was over 100 µM each time. For the same molecule, the TGI with SNB-78 CNS was over 100 µM.

As to `Cc1nc2ccc(NCCN(C)C)c3c(=O)c4ccccc4n1c23`, the TGI turned out to be 21.3 µM in the test on DLD-1 colon; 21.5 µM in the test with DMS 114 small cell lung; 51.2 µM with HOP-18 NSCLC; 16.9 µM with KM20L2 colon; 22.6 µM in the test with LXFL 529 NSCLC; 15.8 µM in the test on RXF-631 renal. For the same molecule, the TGI in the test on SNB-78 CNS stood at 23.9 µM.

Take `Nc1cccc(-c2cc(=O)c3cc4c(cc3[nH]2)OCO4)c1`: the TGI with DMS 273 small cell lung was 3.83 µM; with HOP-18 NSCLC, over 100 µM; in the test with LXFL 529 NSCLC it was over 100 µM; in the test with SNB-78 CNS, over 100 µM; with XF 498 CNS, over 100 µM.

On to `CNC(=S)N/N=C/C(C)=N/NC(=S)NC`, for which the TGI in the test with DMS 114 small cell lung, in the test on DMS 273 small cell lung, in the test with HOP-18 NSCLC, with KM20L2 colon and in the test on SNB-78 CNS was over 100 µM each time.

For the molecule `C/C(=C\C(=O)Nc1ccc2n[nH]nc2c1)Nc1ccc2n[nH]nc2c1`, the TGI with DLD-1 colon, in the test on DMS 114 small cell lung, in the test with HOP-18 NSCLC, in the test on KM20L2 colon, in the test on LXFL 529 NSCLC and in the test on RXF-631 renal was over 100 µM throughout. This molecule registered a TGI with SNB-78 CNS of over 100 µM.

Regarding `Nc1nc(SCc2ccccc2Cl)c2ncn(C3OC(CO)C(O)C3O)c2n1` (centres undefined), the TGI in the test with DLD-1 colon, in the test on DMS 114 small cell lung, in the test with DMS 273 small cell lung, in the test on HOP-18 NSCLC, in the test on KM20L2 colon and in the test with LXFL 529 NSCLC was over 100 µM in each case.

On to `Nc1nc(Cl)c2ncn(CCCC(c3ccccc3)P(=O)(O)O)c2n1` (centres undefined), for which the TGI in the test on DLD-1 colon, with DMS 114 small cell lung, with DMS 273 small cell lung, in the test with HOP-18 NSCLC, with KM20L2 colon and in the test on LXFL 529 NSCLC was over 100 µM throughout. For the same molecule, in the test on SNB-78 CNS, the TGI is over 100 µM.

The values are drawn from PubChem BioAssay (NCI).
